The source of these data is ChEMBL document CHEMBL1130798, “Structure based design: novel spirocyclic ethers as nonpeptidal P2-ligands for HIV protease inhibitors” (Bioorg Med Chem Lett, 1998).

The structures appear in SMILES notation. Where only a bound is given, the exact number is not on record here.

One assay relates to MT4. In words: Compound was evaluated for the inhibition spread of HIV-1 in MT-4 human T-lymphoid cells infected with IIIB isolate. Format: functional. Conditions: read-out: ID50 (the source's name).
Assay [1] addresses Human immunodeficiency virus type 1 protease (Human immunodeficiency virus 1, UniProt Q72874). In words: Compound was evaluated for binding affinity against HIV protease.

Take `COc1ccc(S(=O)(=O)N(CC(C)C)C[C@@H](O)[C@H](Cc2ccccc2)NC(=O)[C@H]2C[C@@]3(CCCO3)CCO2)cc1`: in the assay on MT4, the IC50 is 9.1 µM. Also, affinity in assay [1] was put at a Ki of 0.4 µM.
For `CC(C)(C)NC(=O)C1CC2CCCCC2CN1C[C@@H](O)[C@H](Cc1ccccc1)NC(=O)[C@H](CC(N)=O)NC(=O)c1ccc2ccccc2n1` (single isomer, unassigned), the IC50 with MT4 was 18 µM.
Turning to `COc1ccc(S(=O)(=O)N(CC(C)C)C[C@@H](O)[C@H](Cc2ccccc2)NC(=O)C2CC3(CCCC3)CCO2)cc1` (stereo not given in full), the inhibition constant (Ki) (as a rule, the dissociation constant of the complex between target and ligand, obtained from inhibition or displacement) in assay [1] stood at 1.5 µM.
`CCC[C@@]1(O)CCO[C@H](C(=O)N[C@@H](Cc2ccccc2)[C@H](O)CN(CC(C)C)S(=O)(=O)c2ccc(OC)cc2)C1`: in the assay with MT4, the IC50 was more than 10 µM. For the same compound, the inhibitory constant (Ki) in assay [1] amounted to 0.48 µM.
As to `CCC[C@]1(O)CCO[C@@H](C(=O)N[C@@H](Cc2ccccc2)[C@H](O)CN(CC(C)C)S(=O)(=O)c2ccc(OC)cc2)C1`, the IC50 with MT4 was found to be 3.4 µM. In assay [1], this compound came in with a Ki of 0.15 µM.
As to `COc1ccc(S(=O)(=O)N(CC(C)C)C[C@@H](O)[C@H](Cc2ccccc2)NC(=O)[C@@H]2C[C@]3(CCCO3)CCO2)cc1`, the IC50 with MT4 worked out at 4.5 µM. This compound also displayed an inhibitory constant (Ki) in assay [1] of 0.15 µM.
As to `CCC[C@@]1(O)CCO[C@@H](C(=O)N[C@@H](Cc2ccccc2)[C@H](O)CN(CC(C)C)S(=O)(=O)c2ccc(OC)cc2)C1`, the inhibitory constant (Ki) in assay [1] is more than 1 µM.
In turn, `CCC[C@]1(O)CCO[C@H](C(=O)N[C@@H](Cc2ccccc2)[C@H](O)CN(CC(C)C)S(=O)(=O)c2ccc(OC)cc2)C1` registered a Ki in assay [1] of more than 1 µM.
Regarding `COc1ccc(S(=O)(=O)N(CC(C)C)C[C@@H](O)[C@H](Cc2ccccc2)NC(=O)[C@@H]2C[C@@]3(CCCO3)CCO2)cc1`, the IC50 in the assay with MT4 is 2.4 µM. The compound also displayed a Ki in assay [1] of 0.02 µM.
In assay [1], `COc1ccc(S(=O)(=O)N(CC(C)C)C[C@@H](O)[C@H](Cc2ccccc2)NC(=O)[C@H]2C[C@]3(CCCO3)CCO2)cc1` showed an inhibition constant (Ki) of more than 2 µM.
